The text below walks through data of US20250145592A1 (NICO Therapeutics, Inc., priority 2022, published 2025).

Like-named read-outs stand apart in the source and are kept apart here.

In the test the test system is IL-1β secretion in THP-1 cells (NLRP3). Nature of the test: IL-1β secretion assay in PMA-differentiated THP-1 cells stimulated with LPS and nigericin (ELISA readout). Format: cell-based. Particulars: IL-1β ELISA. On the procedure:
Compounds as provided herein were tested in the following assay. Cell culture medium employed contained RPMI 1640 medium (89%), FBS (10%), Pen/Strep (1%), and 2-mercaptoethanol (0.05 mM). Freezing medium was made up of 90% FBS and 10% DMSO. THP-1 cells were removed from the liquid nitrogen and placed into a 37° C. water bath to thaw, until signs of ice dissipated. The cells were then added to 9 mL of warm cell culture medium and centrifuged for 5 minutes at 1000 rpm. The supernatant was discarded, and the cells were resuspended in new cell culture medium. THP-1 cells were then split and cultured in the cell culture medium, being passaged every 2-3 days with the cell density will be maintained between 5×10^5 and 1.5×10^6 viable cells/mL.
To freeze, cells were resuspended with fresh freezing medium, adjusting the cell density to 5×10^6 cells/mL. The cell suspension was partitioned into 1 mL aliquots per vial, and the vials were transferred to a −80° C. freezer. After one day at −80° C., the cell vials were transferred to liquid nitrogen freezer for storage.
PMA was dissolved in DMSO to make a stock solution at 5 mg/ml and stored in 10 μl aliquots at −20° C. for single use. PMA is added to normal growth medium. LPS was diluted with 1 mL of water solution to provide a 1 mg/mL stock solution and stored in 15 μl aliquots at −20° C. for single use. Nigericin is diluted in ice cold 100% ethanol to 5 mg/ml (6.7 mM) and stored in 75 μL aliquots at −20° C. for single use. Serum-free media contains RPMI 1640 medium (99%), Pen/Strep (1%), and 2-mercaptoethanol (0.05 mM). The two control conditions used to qualify and normalize test compound dose-response curves were as follows: High Control=25 ng/mL LPS, […], 0.5% DMSO, Low Control=25 ng/mL, LPS, 0.5% DMSO.
THP-1 cells were diluted to provide a suspension at a concentration of 1.0×10^6 cells/mL with the total volume of suspension required to enable the desired number of assay plates. The growth media was supplemented with PMA (5 ng/mL final concentration) and the cells were incubated at 37° C. under a humidified atmosphere of 5% CO2 for 40 h.
All media was carefully aspirated from each culture flask. The cells were washed carefully with 1×DPBS. The cells were then briefly digested with trypsin LE for 5 minutes at 23° C. and immediately resuspended in cell growth media. After resuspension, the cells were centrifuged at 1000 rpm for 3 minutes and the supernatant was discarded. The cells were resuspended in DPBS and once again centrifuged at 1000 rpm for 5 minutes. The supernatant was discarded and the cell pellet was resuspended in serum-free media supplemented with LPS (25 ng/mL final concentration) to enable the distribution of 30K THP-1 cells within 45 μL of media into each well of 384-well PDL-coated plates. The 384-well plates were then incubated at 37° C. under a humidified atmosphere of 5% CO2 for 2 h. Following this period, test compounds were dispensed by Tecan across the desired concentration range with all wells normalized to a final 0.5% DMSO concentration. The plates were then then incubated at 37° C. under a humidified atmosphere of 5% CO2 for 1 h. Following this period, 5 μL of the 5 mg/mL nigericin stock solution was added to each of the appropriate wells and plates were centrifuged at 1000 rpm for 30 seconds. The plates were the immediately reintroduced to the incubator at 37° C. under a humidified atmosphere of 5% CO2 for 2 h. After this time, 35 μL/well of supernatant was collected and transferred into v-bottom plate and centrifuged at 1000 rpm for 1 minute. These supernatant aliquots were analyzed using an IL-Iβ detection kit as described below. If needed, the test samples could be snap frozen and stored at −80° C. until analyzed.
To prepare each ELISA plate, capture antibody (mAb Mt175) was diluted with PBS to a final concentration of […] and then 20 µL of this solution was added to each well of the ELISA plate.
Each plate was allowed to incubate overnight at 4° C. […]
(An ELISA detects its analyte on a solid surface through an enzyme-linked reagent.)

[1] abbreviates: Table 3, LPS 25 ng/mL + nigericin, read-out: Activity (IC50 class).
Where [2] appears, read: Table 4, LPS 25 ng/mL + nigericin, read-out: Activity (IC50).
Setting [3] is: Homo sapiens, THP-1, Table 3, LPS 25 ng/mL + nigericin, read-out: Activity (IC50 class).
The mark [4] stands for this setting: Homo sapiens, THP-1, Table 4, LPS 25 ng/mL + nigericin, read-out: Activity (IC50).

As for `CC[C@@H]1CC1Oc1nn(CC(=O)Nc2ncc(F)cn2)c(=O)c2ccc(Br)cc12` (single isomer, unassigned) [Example 36, 2-[6-bromo-4-[cis-2-ethylcyclopropyl]oxy-1-oxophthalazin-2-yl]-N-(5-fluoropyrimidin-2-yl)acetamide], the IC50 is, setting by setting: under setting [1], under 1 µM; under setting [2], 0.397 µM.
Consider `O=C(Cn1nc(OC2CC2)c2cc(Cl)ccc2c1=O)Nc1ncc(F)cn1` [Example 34, 2-(6-chloro-4-cyclopropyloxy-1-oxophthalazin-2-yl)-N-(5-fluoropyrimidin-2-yl)acetamide], for which the IC50 by setting is: under setting [3], under 1 µM; under setting [4], 0.408 µM.
For `COc1nn(CC(=O)Nc2ncc(F)cn2)c(=O)c2ccc(C3CC3)c(F)c12` [Example 32, 2-(6-cyclopropyl-5-fluoro-4-methoxy-1-oxophthalazin-2-yl)-N-(5-fluoropyrimidin-2-yl)acetamide], the 50% inhibitory concentration (IC50) runs as follows: under setting [3], under 1 µM; under setting [4], 0.183 µM.
For `C[C@]1(O)C[C@@H](NC(=O)Cn2nc(OC3CC4(C3)CC4(F)F)c3cc(Br)ccc3c2=O)C1` (single isomer, unassigned) [Example 19, 2-[6-bromo-4-(2,2-difluorospiro[2.3]hexan-5-yl)oxy-1-oxophthalazin-2-yl]-N-(cis-3-hydroxy-3-methylcyclobutyl)acetamide], the IC50 under setting [3] was under 1 µM and the 50% inhibitory concentration (IC50) under setting [2] was determined as 0.179 µM.
Take `O=C(Cn1nc(OC2CC3(CC3)C2)c2cc(Br)ccc2c1=O)Nc1ncc(F)cn1` [Example 4, 2-(6-bromo-1-oxo-4-spiro[2.3]hexan-5-yloxyphthalazin-2-yl)-N-(5-fluoropyrimidin-2-yl)acetamide]: the IC50 is under 1 µM under setting [3] and 0.033 µM under setting [4].
Regarding `O=C(Cn1nc(OC2CC3(C2)CC3(F)F)c2cc(C3(F)CC3)ccc2c1=O)Nc1ncc(F)cn1` (single isomer, unassigned) [Example 13, 2-[4-(2,2-difluorospiro[2.3]hexan-5-yl)oxy-6-(1-fluorocyclopropyl)-1-oxophthalazin-2-yl]-N-(5-fluoropyrimidin-2-yl)acetamide], the IC50 was under 1 µM under setting [3] and 0.034 µM under setting [2].
`COc1nn(CC(=O)N[C@H]2C[C@@](C)(O)C2)c(=O)c2ccc(Br)cc12` [Example 24, 2-(6-bromo-4-methoxy-1-oxophthalazin-2-yl)-N-(cis-3-hydroxy-3-methylcyclobutyl)acetamide]: the IC50 under setting [3] was under 1 µM and the concentration for half-maximal inhibition (IC50) under setting [4] stood at 0.183 µM.
As to `O=C(Cn1nc(OC2CC2(F)F)c2cc(Br)ccc2c1=O)Nc1ncc(F)cn1` (single isomer, unassigned) [Example 17, 2-[6-bromo-4-[2,2-difluorocyclopropyl]oxy-1-oxophthalazin-2-yl]-N-(5-fluoropyrimidin-2-yl)acetamide], the IC50 under setting [3] is under 1 µM and the half-inhibitory concentration (IC50) under setting [2] was 0.07 µM.
For `Cc1cnc(NC(=O)Cn2nc(OC3CC4(C3)CC4(F)F)c3cc(Br)ccc3c2=O)nc1` (single isomer, unassigned) [Example 22, 2-[6-bromo-4-(2,2-difluorospiro[2.3]hexan-5-yl)oxy-1-oxophthalazin-2-yl]-N-(5-methylpyrimidin-2-yl)acetamide], the half-inhibitory concentration (IC50) under setting [1] was under 1 µM and the concentration for half-maximal inhibition (IC50) under setting [2] was 0.815 µM.
As to `O=C(Cn1nc(OC2CC2)c2cc(OC(F)F)ccc2c1=O)Nc1ncc(F)cn1` [Example 37, 2-[4-cyclopropyloxy-6-(difluoromethoxy)-1-oxophthalazin-2-yl]-N-(5-fluoropyrimidin-2-yl)acetamide], the 50% inhibitory concentration (IC50) under setting [3] is under 1 µM and the IC50 under setting [4] amounted to 0.424 µM.
For `Cc1cnc(NC(=O)Cn2nc(OC3C[C@H]3C)c3cc(Br)ccc3c2=O)nc1` (single isomer, unassigned) [Example 9, 2-[6-bromo-4-[trans-2-methylcyclopropyl]oxy-1-oxophthalazin-2-yl]-N-(5-methylpyrimidin-2-yl)acetamide], the concentration for half-maximal inhibition (IC50) under setting [3] is under 1 µM and the IC50 under setting [2] is 0.554 µM.

As usually defined, the IC50 is the concentration that inhibits the measured activity by half.
